{"source": "patent US20190008151A1", "about": "“PLANT DISEASE CONTROL COMPOSITION AND PLANT DISEASE CONTROL METHOD” (SUMITOMO CHEMICAL COMPANY, LIMITED, priority 2015, published 2019)", "key": {"[1]": {"tested_on": "wheat leaf blight fungus", "test": "Test Example 3: growth of wheat leaf blight fungus in YBG medium, microtiter plate, absorbance at 550 nm", "format": "cell-based", "settings": "18° C., six days", "protocol": "The present compound 1 or the present compound 2-1 was dissolved into dimethyl sulfoxide such that each concentration of the present compound 1 or the present compound 2-1 was adjusted to one hundred fifty times as much as the concentration indicated in the below-mentioned Table 4. The resultant agent solution was dispensed into a microliter plate (with 96 wells) in 1 μl portion thereof per well. One hundred forty nine (149) μl of YBG medium (which was prepared by dissolving 10 g of yeast extract, 10 g of Bacto Peptone, and 20 mL of glycerol into 1 L of water, followed by sterilizing the medium) was dispensed into the wells to which the agent solution(s) was/were dispensed. The plate was cultivated at 18° C. for six days, thereby allowing wheat leaf blight fungus to undergo proliferation, and the absorbance at 550 nm of each well of the micro titer plate was then measured to examine a degree of growth of the wheat leaf blight fungus (hereinafter referred to as “treated group”).\nWhereas, wheat leaf blight fungus was proliferated similarly to the case of the treated group except that dimethyl sulfoxide was used instead of the agent solution, and the degree of the growth was examined (hereinafter referred to as “untreated group”). The efficacy was calculated from the respective obtained degree of growth by the below-mentioned “Equation 1”.\nEfficacy(%)=100×(X−Y)/X Equation 1 […]"}, "[2]": {"tested_on": "wheat rust fungus (Puccinia recondite)", "test": "Test Example 4: foliar spray of flowable formulations on wheat, inoculation with wheat rust fungus, lesion area", "format": "in vivo, Puccinia recondite on wheat (cultivar. Shirogane)", "settings": "lesion area after ten days at 23° C.", "protocol": "Five (5) parts of the present compound 1, 35 parts of a mixture of white carbon and ammonium polyoxyethylene alkyl ether sulfate (the weight ratio of 1:1) and […] of water were mixed, and the mixture was then finely-ground by a wet grinding method to obtain a flowable formulation comprising the present compound 1. Separately, the flowable formulation comprising the present compound 2-1 was prepared according to the above-mentioned similar method except that the present compound 2-1 was used instead of the present compound 1 to form a flowable formulation comprising the present compound 2-1.\nEach of the above-mentioned respective flowable formulations, and the flowable formulation comprising the present compound 1 and the present compound 2-1 that was prepared according to the above-mentioned Formulation Example 3 was diluted with water such that each concentration of the respective compounds in the dilution solutions was adjusted to that indicated in Table 5, to prepare the dilution solutions, respectively.\nA plastic pot was filled with soil, and thereto wheat (cultivar. Shirogane) was seeded, and the plants were grown in a greenhouse for ten days. […]\nFrom each of the lesion area of the treated group and the untreated group, respectively, the efficacy of the treated group was calculated by the below-mentioned Equation 2. […]"}}}
{"smiles": "CNC(=O)C(OC)c1ccccc1COc1cc(C)ccc1C", "note": "(stereo not shown) [Present compound 1]", "values": [{"measurement": "Efficacy (%)", "setting": "[1]; concentration in medium 0.005 ppm", "value": 20, "unit": "%"}, {"measurement": "Efficacy (%)", "setting": "[1]; concentration in medium 0.1 ppm", "value": 65, "unit": "%"}, {"measurement": "Efficacy (%)", "setting": "[2]; concentration 0.0005 ppm", "value": 22, "unit": "%"}, {"measurement": "Efficacy (%)", "setting": "[2]; concentration 0.01 ppm", "value": 46, "unit": "%"}]}
